What was measured:
Assay in all cases: relative viability (nuclei count vs DMSO), 5 days (fraction); higher = more cells survive
[1] = compound: Cn1c(Nc2ccc(C(F)(F)F)cc2)nc2cc(Oc3ccnc(-c4ncc(C(F)(F)F)[nH]4)c3)ccc21 [RAF265] + Cc1nc(NC(=O)N2CCC[C@H]2C(N)=O)sc1-c1ccnc(C(C)(C)C(F)(F)F)c1 [Alpelisib] (partner 2 µM)
Summary of the method: (§1)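 Relative viability equals treated-well nuclei counts divided by vehicle-well nuclei counts. Counts came from 4× images of lung cancer cell lines grown in 1536-well plates for 5 days after pin-tool dosing on the day after seeding. Dosing used one drug alone or a fixed anchor-drug dose plus five library-drug doses (not always all listed) in √10 steps, and values are medians of duplicate plates.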

[2] = compound: Cn1c(Nc2ccc(C(F)(F)F)cc2)nc2cc(Oc3ccnc(-c4ncc(C(F)(F)F)[nH]4)c3)ccc21 [RAF265] + COc1cccc2cc(-c3nc([C@H]4CC[C@H](C(=O)O)CC4)n4ncnc(N)c34)[nH]c12 [OSI-027] (partner 0.5 µM)
Summary of the method: as §1

[3] = compound: Cn1c(Nc2ccc(C(F)(F)F)cc2)nc2cc(Oc3ccnc(-c4ncc(C(F)(F)F)[nH]4)c3)ccc21 [RAF265] + C[C@@H](Oc1cc(-c2cnn(C3CCNCC3)c2)cnc1N)c1c(Cl)ccc(F)c1Cl [Crizotinib] (partner 1 µM)
Summary of the method: as §1

[4] = compound: Cn1c(Nc2ccc(C(F)(F)F)cc2)nc2cc(Oc3ccnc(-c4ncc(C(F)(F)F)[nH]4)c3)ccc21 [RAF265] + COc1cc2c(Oc3ccc(NC(=O)C4(C(=O)Nc5ccc(F)cc5)CC4)cc3F)ccnc2cc1OCCCN1CCOCC1 [Foretinib] (partner 0.25 µM)
Summary of the method: as §1

With NCI-H1666 the relative viability ([1]; first compound 0.01 µM) was 1.1, the relative viability ([1]; first compound 0.03162 µM) was 1.11 and the relative viability ([1]; first compound 0.1 µM) was 0.942. It also gave a relative viability ([1]; first compound 0.3162 µM) of 0.815, a relative viability ([1]; first compound 1 µM) of 0.547 and a relative viability ([2]; first compound 0.01 µM) of 0.89. It also gave a relative viability ([2]; first compound 0.03162 µM) of 0.716, a relative viability ([2]; first compound 0.1 µM) of 0.774 and a relative viability ([2]; first compound 0.3162 µM) of 0.739. For the same cell line, the relative viability ([2]; first compound 1 µM) was 0.598, the relative viability ([3]; first compound 0.01 µM) was 1.11 and the relative viability ([3]; first compound 0.03162 µM) was 1.08. It also gave a relative viability ([3]; first compound 0.1 µM) of 1.06, a relative viability ([3]; first compound 0.3162 µM) of 0.971 and a relative viability ([3]; first compound 1 µM) of 0.651. The relative viability ([4]; first compound 0.01 µM) was 1.11, the relative viability ([4]; first compound 0.03162 µM) was 0.936 and the relative viability ([4]; first compound 0.1 µM) was 0.985. For the same cell line, the relative viability ([4]; first compound 0.3162 µM) was 1.01 and the relative viability ([4]; first compound 1 µM) was 0.81.
In the case of NCI-H1734, the relative viability ([1]; first compound 0.01 µM) is reported as 0.668, the relative viability ([1]; first compound 0.03162 µM) is reported as 0.529 and the relative viability ([1]; first compound 0.1 µM) is reported as 0.589. For the same cell line, the relative viability ([1]; first compound 0.3162 µM) was 0.532, the relative viability ([1]; first compound 1 µM) was 0.333 and the relative viability ([2]; first compound 0.01 µM) was 0.604. The relative viability ([2]; first compound 0.03162 µM) was 0.54, the relative viability ([2]; first compound 0.1 µM) was 0.38 and the relative viability ([2]; first compound 0.3162 µM) was 0.381. For the same cell line, the relative viability ([2]; first compound 1 µM) was 0.247, the relative viability ([3]; first compound 0.01 µM) was 0.662 and the relative viability ([3]; first compound 0.03162 µM) was 0.47. It also gave a relative viability ([3]; first compound 0.1 µM) of 0.751, a relative viability ([3]; first compound 0.3162 µM) of 0.492 and a relative viability ([3]; first compound 1 µM) of 0.319. The relative viability ([4]; first compound 0.01 µM) was 0.858, the relative viability ([4]; first compound 0.03162 µM) was 0.701 and the relative viability ([4]; first compound 0.1 µM) was 0.627. It also gave a relative viability ([4]; first compound 0.3162 µM) of 0.647 and a relative viability ([4]; first compound 1 µM) of 0.454.
Cell Line NCI-H1755 has a relative viability ([1]; first compound 0.01 µM) of 0.966, a relative viability ([1]; first compound 0.03162 µM) of 0.864 and a relative viability ([1]; first compound 0.1 µM) of 0.779. It also gave a relative viability ([1]; first compound 0.3162 µM) of 0.486, a relative viability ([1]; first compound 1 µM) of 0.408 and a relative viability ([2]; first compound 0.01 µM) of 0.689. For the same cell line, the relative viability ([2]; first compound 0.03162 µM) was 0.636, the relative viability ([2]; first compound 0.1 µM) was 0.597 and the relative viability ([2]; first compound 0.3162 µM) was 0.455. It also gave a relative viability ([2]; first compound 1 µM) of 0.303, a relative viability ([3]; first compound 0.01 µM) of 0.837 and a relative viability ([3]; first compound 0.03162 µM) of 0.757. It also gave a relative viability ([3]; first compound 0.1 µM) of 0.813, a relative viability ([3]; first compound 0.3162 µM) of 0.685 and a relative viability ([3]; first compound 1 µM) of 0.476. The relative viability ([4]; first compound 0.01 µM) was 0.951, the relative viability ([4]; first compound 0.03162 µM) was 0.884 and the relative viability ([4]; first compound 0.1 µM) was 0.926. For the same cell line, the relative viability ([4]; first compound 0.3162 µM) was 0.727 and the relative viability ([4]; first compound 1 µM) was 0.568.
NCI-H1915 gave a relative viability ([1]; first compound 0.01 µM) of 1.07, a relative viability ([1]; first compound 0.03162 µM) of 0.945 and a relative viability ([1]; first compound 0.1 µM) of 0.908. It also gave a relative viability ([1]; first compound 0.3162 µM) of 0.543, a relative viability ([1]; first compound 1 µM) of 0.296 and a relative viability ([2]; first compound 0.01 µM) of 0.674. It also gave a relative viability ([2]; first compound 0.03162 µM) of 0.492, a relative viability ([2]; first compound 0.1 µM) of 0.339 and a relative viability ([2]; first compound 0.3162 µM) of 0.217. It also gave a relative viability ([2]; first compound 1 µM) of 0.176, a relative viability ([3]; first compound 0.01 µM) of 0.875 and a relative viability ([3]; first compound 0.03162 µM) of 0.81. The relative viability ([3]; first compound 0.1 µM) was 0.727, the relative viability ([3]; first compound 0.3162 µM) was 0.496 and the relative viability ([3]; first compound 1 µM) was 0.234. The relative viability ([4]; first compound 0.01 µM) was 1.09, the relative viability ([4]; first compound 0.03162 µM) was 1.05 and the relative viability ([4]; first compound 0.1 µM) was 0.869. The relative viability ([4]; first compound 0.3162 µM) was 0.348 and the relative viability ([4]; first compound 1 µM) was 0.306.
With NCI-H1944 the relative viability ([1]; first compound 0.01 µM) was 0.896, the relative viability ([1]; first compound 0.03162 µM) was 0.841 and the relative viability ([1]; first compound 0.1 µM) was 0.646. For the same cell line, the relative viability ([1]; first compound 0.3162 µM) was 0.496, the relative viability ([1]; first compound 1 µM) was 0.442 and the relative viability ([2]; first compound 0.01 µM) was 0.516. It also gave a relative viability ([2]; first compound 0.03162 µM) of 0.5, a relative viability ([2]; first compound 0.1 µM) of 0.357 and a relative viability ([2]; first compound 0.3162 µM) of 0.317. It also gave a relative viability ([2]; first compound 1 µM) of 0.237, a relative viability ([3]; first compound 0.01 µM) of 1.09 and a relative viability ([3]; first compound 0.03162 µM) of 1.26. For the same cell line, the relative viability ([3]; first compound 0.1 µM) was 1.08, the relative viability ([3]; first compound 0.3162 µM) was 0.794 and the relative viability ([3]; first compound 1 µM) was 0.664. The relative viability ([4]; first compound 0.01 µM) was 0.939, the relative viability ([4]; first compound 0.03162 µM) was 0.913 and the relative viability ([4]; first compound 0.1 µM) was 0.906. For the same cell line, the relative viability ([4]; first compound 0.3162 µM) was 0.762 and the relative viability ([4]; first compound 1 µM) was 0.461.
NCI-H1975 gave a relative viability ([1]; first compound 0.01 µM) of 0.589, a relative viability ([1]; first compound 0.03162 µM) of 0.427 and a relative viability ([1]; first compound 0.1 µM) of 0.306. It also gave a relative viability ([1]; first compound 0.3162 µM) of 0.234, a relative viability ([1]; first compound 1 µM) of 0.173 and a relative viability ([2]; first compound 0.01 µM) of 0.682. It also gave a relative viability ([2]; first compound 0.03162 µM) of 0.601, a relative viability ([2]; first compound 0.1 µM) of 0.348 and a relative viability ([2]; first compound 0.3162 µM) of 0.261. For the same cell line, the relative viability ([2]; first compound 1 µM) was 0.178, the relative viability ([3]; first compound 0.01 µM) was 0.894 and the relative viability ([3]; first compound 0.03162 µM) was 0.77. For the same cell line, the relative viability ([3]; first compound 0.1 µM) was 0.679, the relative viability ([3]; first compound 0.3162 µM) was 0.456 and the relative viability ([3]; first compound 1 µM) was 0.451. For the same cell line, the relative viability ([4]; first compound 0.01 µM) was 0.88, the relative viability ([4]; first compound 0.03162 µM) was 0.74 and the relative viability ([4]; first compound 0.1 µM) was 0.639. It also gave a relative viability ([4]; first compound 0.3162 µM) of 0.383 and a relative viability ([4]; first compound 1 µM) of 0.333.
Work on NCI-H1993 yielded a relative viability ([1]; first compound 0.01 µM) of 0.648, a relative viability ([1]; first compound 0.03162 µM) of 0.648 and a relative viability ([1]; first compound 0.1 µM) of 0.77. For the same cell line, the relative viability ([1]; first compound 0.3162 µM) was 0.761, the relative viability ([1]; first compound 1 µM) was 0.715 and the relative viability ([2]; first compound 0.01 µM) was 0.539. For the same cell line, the relative viability ([2]; first compound 0.03162 µM) was 0.583, the relative viability ([2]; first compound 0.1 µM) was 0.552 and the relative viability ([2]; first compound 0.3162 µM) was 0.579. It also gave a relative viability ([2]; first compound 1 µM) of 0.543, a relative viability ([3]; first compound 0.01 µM) of 0.725 and a relative viability ([3]; first compound 0.03162 µM) of 0.85. The relative viability ([3]; first compound 0.1 µM) was 0.993, the relative viability ([3]; first compound 0.3162 µM) was 0.759 and the relative viability ([3]; first compound 1 µM) was 0.758. The relative viability ([4]; first compound 0.01 µM) was 0.86, the relative viability ([4]; first compound 0.03162 µM) was 0.729 and the relative viability ([4]; first compound 0.1 µM) was 0.783. It also gave a relative viability ([4]; first compound 0.3162 µM) of 0.777 and a relative viability ([4]; first compound 1 µM) of 0.575.
Cell Line NCI-H2009 has a relative viability ([1]; first compound 0.01 µM) of 1.21, a relative viability ([1]; first compound 0.03162 µM) of 1.11 and a relative viability ([1]; first compound 0.1 µM) of 1.03. The relative viability ([1]; first compound 0.3162 µM) was 1.05, the relative viability ([1]; first compound 1 µM) was 0.594 and the relative viability ([2]; first compound 0.01 µM) was 0.581. It also gave a relative viability ([2]; first compound 0.03162 µM) of 0.414, a relative viability ([2]; first compound 0.1 µM) of 0.328 and a relative viability ([2]; first compound 0.3162 µM) of 0.365. For the same cell line, the relative viability ([2]; first compound 1 µM) was 0.318, the relative viability ([3]; first compound 0.01 µM) was 1.07 and the relative viability ([3]; first compound 0.03162 µM) was 0.91. For the same cell line, the relative viability ([3]; first compound 0.1 µM) was 0.96, the relative viability ([3]; first compound 0.3162 µM) was 0.805 and the relative viability ([3]; first compound 1 µM) was 0.629. It also gave a relative viability ([4]; first compound 0.01 µM) of 1.29, a relative viability ([4]; first compound 0.03162 µM) of 1.25 and a relative viability ([4]; first compound 0.1 µM) of 1.14. For the same cell line, the relative viability ([4]; first compound 0.3162 µM) was 1.1 and the relative viability ([4]; first compound 1 µM) was 0.658.

From the supplement of paper PMC10307832
